Data reported in patent US9597314B2, “Beta-lactamylalkanoic acids for treating premenstrual disorders” (AZEVAN PHARMACEUTICALS, INC., priority 2005, dated 2017).

Biological target: V1a (Homo sapiens, UniProt P37288)
Experiment: Human vasopression V1a receptor binding assay
Parameters: host or cells: CHO cells (hV1a cell line), whole adherent cells
Conditions: hV1a cell line (CHO); for IC50: 1 nM 3H-AVP, Table 17, read-out: V1a Binding Affinity (IC50 (nM)); for Ki: Table 18
Experimental: Human vasopression V1a receptor binding assay. A cell line expressing the human V1a receptor in CHO cells (henceforth referred to as the hV1a cell line) was obtained from Dr. Michael Brownstein, NIMH, Bethesda, Md., USA. The hV1a cDNA sequence is described by Thibonnier et al., Journal of Biological Chemistry, 269, 3304-3310 (1994), and the expression method was the same as described by Morel et al. (1992). The hV1a cell line was grown in alpha-MEM with 10% fetal bovine serum and 250 ug/ml G418 (Gibco, Grand Island, N.Y., USA). For competitive binding assay, hV1a cells were plated into 6-well culture plate at 1:10 dilution from a confluency flask, and maintained in culture for at least two days. Culture medium was then removed, cells were washed with 2 ml binding buffer (25 mM Hepes, 0.25% BSA, 1×DMEM, PH=7.0). To each well, 990 μl binding buffer containing 1 nM 3H-AVP was added, and followed by 10 μl series diluted Example compounds dissolved in DMSO. […] 100 nM cold AVP (Sigma) was used to assess non-specific binding. Cells were incubated for 45 minutes at 37° C., assay mixture was removed and each well was washed three times with PBS (pH=7.4). 1 ml 2% SDS was added per well and plates were let sit for 30 minutes. The whole content in a well was transferred to a scintillation vial. Each well was rinsed with 0.5 ml PBS which was then added to the corresponding vial. Scintillation fluid (Ecoscint, National Diagnostics, Atlanta, Ga.) was then added at 3 ml per vial. Samples were counted in a liquid scintillation counter (Beckman LS3801). IC50 values were calculated by Prism Curve fitting software.
All of the alkanedioic esters and amides exemplified in the foregoing examples dissolved in DMSO were tested in this assay. Binding curves were generated according to methods described by Thibonnier et al. (1994). [^3H]-AVP was added to the hV1a cell cultures followed by 10 fold dilutions of each test compound.

V1a, sequence (P37288 whole entry): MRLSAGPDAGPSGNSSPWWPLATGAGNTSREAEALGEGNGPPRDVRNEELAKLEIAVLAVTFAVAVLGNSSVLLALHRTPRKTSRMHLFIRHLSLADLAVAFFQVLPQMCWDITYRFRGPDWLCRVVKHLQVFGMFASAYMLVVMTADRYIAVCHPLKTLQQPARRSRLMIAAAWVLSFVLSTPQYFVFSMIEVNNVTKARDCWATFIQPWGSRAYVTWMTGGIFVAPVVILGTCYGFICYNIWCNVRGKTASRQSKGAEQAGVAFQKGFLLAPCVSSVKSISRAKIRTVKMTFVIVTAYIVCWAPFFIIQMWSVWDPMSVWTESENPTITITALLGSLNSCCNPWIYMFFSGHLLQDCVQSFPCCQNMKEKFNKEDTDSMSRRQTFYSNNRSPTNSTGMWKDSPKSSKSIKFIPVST

Row | Compound | IC50 | Ki
1 | CC(C)(NC(=O)[C@@H](CC(=O)N1CCC(N2CCCCC2)CC1)N1C(=O)[C@@H](N2C(=O)OC[C@@H]2c2ccccc2)[C@H]1/C=C/c1ccccc1)c1ccccc1 [Example 134J] | 5.29 nM | 3.25 nM
2 | O=C(NC1(c2ccccc2)CCCC1)[C@H](CC(=O)N1CCC(N2CCCCC2)CC1)N1C(=O)[C@@H](N2C(=O)OC[C@@H]2c2ccccc2)[C@H]1/C=C/c1ccccc1 [Example 132D] | 6.3 nM | 3.9 nM
3 | CC(C)(NC(=O)[C@H](CCC(=O)N1CCN(C2CCCCC2)CC1)N1C(=O)[C@@H](N2C(=O)OC[C@@H]2c2ccccc2)[C@H]1/C=C/c1ccccc1)c1ccccc1 [Example 204] | 6 nM | 3.7 nM
4 | O=C(NCc1ccc(Cl)c(C(F)(F)F)c1)[C@H](CCC(=O)N1CCN(C2CCCCC2)CC1)N1C(=O)[C@@H](N2C(=O)OC[C@@H]2c2ccccc2)[C@H]1/C=C/c1ccccc1 [Example 181] | < 50 nM | 
5 | CCN1CCN(C(=O)CC[C@@H](C(=O)NCc2cccc(C(F)(F)F)c2)N2C(=O)[C@@H](N3C(=O)OC[C@@H]3c3ccccc3)[C@H]2/C=C/c2ccccc2)CC1 [Example 221AC] | < 10 nM | 
6 | COc1cc(OC)cc(C(C)(C)NC(=O)[C@H](CCC(=O)N2CCN(C3CCCCC3)CC2)N2C(=O)[C@@H](N3C(=O)OC[C@@H]3c3ccccc3)[C@H]2/C=C/c2ccccc2)c1 [Example 218] | 7.7 nM | 4.7 nM
7 | O=C(C[C@@H](C(=O)NCc1cccc(C(F)(F)F)c1)N1C(=O)[C@@H](N2C(=O)OC[C@@H]2c2ccccc2)[C@H]1CCc1ccccc1)NC1CCN(Cc2ccccc2)CC1 [Example 235, 2(S)-[[(1-Benzylpiperidin-4-yl)amino]carbonylmethyl]-2-[3(S)-(4(S)-phenyloxazolidin-2-on-3-yl)-4(R)-(2-phenyleth-1-yl)azetidin-2-on-1-yl]acetic acid N-(3-trifluoromethylbenzyl)amide] | 37 nM | 23 nM
8 | COc1cccc([C@H](C)NC(=O)[C@H](CCC(=O)N2CCN(C3CCCCC3)CC2)N2C(=O)[C@@H](N3C(=O)OC[C@@H]3c3ccccc3)[C@H]2/C=C/c2ccccc2)c1 [Example 203] | 2.46 nM | 1.5 nM
9 | O=C(NCCc1ccccc1)[C@H](CCC(=O)N1CCN(C2CCCCC2)CC1)N1C(=O)[C@@H](N2C(=O)OC[C@@H]2c2ccccc2)[C@H]1/C=C/c1ccccc1 [Example 200] | 5.08 nM | 3.11 nM
10 | O=C([C@@H](COCc1ccccc1)N1C(=O)[C@@H](N2C(=O)OC[C@@H]2c2ccccc2)[C@H]1/C=C/c1ccccc1)N1CCC(CCN2CCCCC2)CC1 [Example 233] | 0.56 nM | 0.34 nM
11 | CC(C)N1CCN(C(=O)CC[C@H](C(=O)NCc2cccc(C(F)(F)F)c2)N2C(=O)[C@@H](N3C(=O)OC[C@@H]3c3ccccc3)[C@H]2/C=C/c2ccccc2)CC1 [Example 138] |  | 13 nM
12 | COc1ccccc1C=CC1C(N2C(=O)OCC2c2ccccc2)C(=O)N1C(CC(=O)N1CCC(N2CCCCC2)CC1)C(=O)NCc1cccc(C(F)(F)F)c1 [Example 231, 2(R)-[[4-(Piperidinyl)piperidinyl]carbonylmethyl]-2-[3(S)-(4(S)-phenyloxazolidin-2-on-3-yl)-4(R)-(2′-methoxystyr-2-yl)azetidin-2-on-1-yl]acetic acid N-(3-trifluoromethylbenzyl)amide] | 6.12 nM | 3.75 nM
13 | O=C(NC1(c2ccc(F)cc2)CCCC1)[C@H](CCC(=O)N1CCN(C2CCCCC2)CC1)N1C(=O)[C@@H](N2C(=O)OC[C@@H]2c2ccccc2)[C@H]1/C=C/c1ccccc1 [Example 221I] | 12 nM | 7.4 nM
14 | O=C(N[C@H]1CCc2ccccc21)[C@H](CCC(=O)N1CCN(C2CCCCC2)CC1)N1C(=O)[C@@H](N2C(=O)OC[C@@H]2c2ccccc2)[C@H]1/C=C/c1ccccc1 [Example 221R] | 5.13 nM | 3.14 nM
15 | O=C(CC[C@@H](C(=O)N[C@@H]1CCCc2ccccc21)N1C(=O)[C@@H](N2C(=O)OC[C@@H]2c2ccccc2)[C@H]1/C=C/c1ccccc1)N[C@@H]1CCN(Cc2ccccc2)C1 [Example 221AD] | ~50 nM | 
16 | CC(NC(=O)[C@H](CCC(=O)N1CCN(C2CCCCC2)CC1)N1C(=O)[C@@H](N2C(=O)OC[C@@H]2c2ccccc2)[C@H]1/C=C/c1ccccc1)c1ccccc1 (stereo partly drawn) [Example 195] | < 50 nM | 
17 | O=C(NCc1ccccn1)[C@H](CCC(=O)N1CCN(C2CCCCC2)CC1)N1C(=O)[C@@H](N2C(=O)OC[C@@H]2c2ccccc2)[C@H]1/C=C/c1ccccc1 [Example 208] | 16.3 nM | 10 nM
18 | O=C(N[C@@H]1CCCc2ccccc21)[C@H](CCC(=O)N1CCN(CCCO)CC1)N1C(=O)[C@@H](N2C(=O)OC[C@@H]2c2ccccc2)[C@H]1/C=C/c1ccccc1 [Example 221BI] | 56 nM | 35 nM

Row | Compound | IC50 | Ki
19 | O=C(NCc1ccccc1)[C@H](CCC(=O)N1CCN(C2CCCCC2)CC1)N1C(=O)[C@@H](N2C(=O)OC[C@@H]2c2ccccc2)[C@H]1/C=C/c1ccccc1 [Example 191] | 2.92 nM | 1.79 nM
20 | (2S)-[(4-cyclohexylpiperazinyl)carbonylethyl]-2-[3(S)-(4(S)-phenyloxazolidin-2-on-3-yl)-4(R)-(2-phenyleth-1-yl)azetidin-2-on-1-yl]acetic acid N—[(R)-1,2,3,4-tetrahydronaphth-1-yl]amide [Example 236A] | 9 nM | 5.5 nM
21 | O=C(Nc1cccc2c1CCC2)[C@H](CCC(=O)N1CCN(C2CCCCC2)CC1)N1C(=O)[C@@H](N2C(=O)OC[C@@H]2c2ccccc2)[C@H]1/C=C/c1ccccc1 [Example 221AY] | ~30 nM | 
22 | O=C(NC1CCc2ccccc21)[C@H](CCC(=O)N1CCN(C2CCCCC2)CC1)N1C(=O)[C@@H](N2C(=O)OC[C@@H]2c2ccccc2)[C@H]1/C=C/c1ccccc1 (stereo partly drawn) [Example 216] | 1.83 nM | 1.12 nM
23 | Cc1ccccc1CNC(=O)[C@H](CCC(=O)N1CCN(C2CCCCC2)CC1)N1C(=O)[C@@H](N2C(=O)OC[C@@H]2c2ccccc2)[C@H]1/C=C/c1ccccc1 [Example 192] | < 10 nM | 
24 | O=C(CC[C@@H](C(=O)N[C@@H]1CCCc2ccccc21)N1C(=O)[C@@H](N2C(=O)OC[C@@H]2c2ccccc2)[C@H]1/C=C/c1ccccc1)NCCN1CCCCC1 [Example 221X] | 11.6 nM | 7.2 nM
25 | CN(Cc1cccc(Cl)c1)C(=O)[C@H](CCC(=O)N1CCN(C2CCCCC2)CC1)N1C(=O)[C@@H](N2C(=O)OC[C@@H]2c2ccccc2)[C@H]1/C=C/c1ccccc1 [Example 221C] | 3 nM | 1.84 nM
26 | O=C(NCc1cccc(C(F)(F)F)c1)[C@@H](CCC(=O)N1CCN(C2CCCCC2)CC1)N1C(=O)[C@@H](N2C(=O)OC[C@@H]2c2ccccc2)[C@H]1/C=C/c1ccccc1 [Example 139] |  | 5.84 nM
27 | O=C(NCc1cccc(C(F)(F)F)c1)C(C(=O)N1CCN(C2CCCCC2)CC1)N1C(=O)[C@@H](N2C(=O)OC[C@@H]2c2ccccc2)[C@H]1/C=C/c1ccccc1 (mixture of isomers) [Example 42] |  | 26.4 nM
28 | O=C(NCc1cc(F)cc(F)c1)[C@H](CCC(=O)N1CCN(C2CCCCC2)CC1)N1C(=O)[C@@H](N2C(=O)OC[C@@H]2c2ccccc2)[C@H]1/C=C/c1ccccc1 [Example 185] | 1.27 nM | 
29 | Cc1ccc(CNC(=O)[C@H](CCC(=O)N2CCN(C3CCCCC3)CC2)N2C(=O)[C@@H](N3C(=O)OC[C@@H]3c3ccccc3)[C@H]2/C=C/c2ccccc2)o1 [Example 212] | 0.95 nM | 0.58 nM
30 | C[C@H](NC(=O)[C@H](CCC(=O)N1CCN(C2CCCCC2)CC1)N1C(=O)[C@@H](N2C(=O)OC[C@@H]2c2ccccc2)[C@H]1/C=C/c1ccccc1)c1ccccc1 [Example 206] | 1.58 nM | 0.97 nM
31 | O=C(C[C@@H](C(=O)NCc1cccc(C(F)(F)F)c1)N1C(=O)[C@@H](N2C(=O)OC[C@@H]2c2ccccc2)[C@H]1/C=C/c1ccccc1)N[C@H]1CCN(Cc2ccccc2)C1 [Example 85] |  | 3.6 nM
32 | COc1cccc(CNC(=O)[C@H](CCC(=O)N2CCN(C3CCCCC3)CC2)N2C(=O)[C@@H](N3C(=O)OC[C@@H]3c3ccccc3)[C@H]2/C=C/c2ccccc2)c1 [Example 183] | < 10 nM | 
33 | O=C(NCc1cccc(C(F)(F)F)c1)[C@@H](CC(=O)N1CCC(CCN2CCCCC2)CC1)N1C(=O)[C@@H](N2C(=O)OC[C@@H]2c2ccccc2)[C@H]1/C=C/c1ccccc1 [Example 134A] | 12.9 nM | 7.9 nM
34 | CN(Cc1cccc(Br)c1)C(=O)[C@H](CCC(=O)N1CCN(C2CCCCC2)CC1)N1C(=O)[C@@H](N2C(=O)OC[C@@H]2c2ccccc2)[C@H]1/C=C/c1ccccc1 [Example 221D] | 2.41 nM | 1.48 nM
35 | CCCCN1CCN(C(=O)CC[C@H](C(=O)NCc2cccc(C(F)(F)F)c2)N2C(=O)[C@@H](N3C(=O)OC[C@@H]3c3ccccc3)[C@H]2/C=C/c2ccccc2)CC1 [Example 137] |  | 10.5 nM
